# In paper PMC7376644 (Pharmacology Research & Perspectives, 2020):
# Several values for one entry are separate records, joined by “and”; a condition that tells them apart may be missing. Equal entries are not always repeated. Where two headings read alike, the source gives them in different places.
# Experiments:
# CYP2C19 [1] = biological target: T1, CYP2C19 (Homo sapiens, UniProt P33261); assay: in vitro; settings: recombinant CYP2C19, pH 7.4
# CYP2C19 [2] = biological target: T1, CYP2C19; assay: Intrinsic clearance, substrate depletion approach; settings: rCYP2C19, substrate depletion
# CYP1A2 [3] = biological target: T2, CYP1A2 (Homo sapiens, UniProt P05177); assay: Enzyme kinetics of hydroxylated metabolites formation; format: in vitro ADME; set-up: purchased CYPEX CYP001; host or cells: Escherichia coli; settings: CYP1A2, formation of cis‐4‐OH‐PZQ
# T2 sequence (P05177 1-516): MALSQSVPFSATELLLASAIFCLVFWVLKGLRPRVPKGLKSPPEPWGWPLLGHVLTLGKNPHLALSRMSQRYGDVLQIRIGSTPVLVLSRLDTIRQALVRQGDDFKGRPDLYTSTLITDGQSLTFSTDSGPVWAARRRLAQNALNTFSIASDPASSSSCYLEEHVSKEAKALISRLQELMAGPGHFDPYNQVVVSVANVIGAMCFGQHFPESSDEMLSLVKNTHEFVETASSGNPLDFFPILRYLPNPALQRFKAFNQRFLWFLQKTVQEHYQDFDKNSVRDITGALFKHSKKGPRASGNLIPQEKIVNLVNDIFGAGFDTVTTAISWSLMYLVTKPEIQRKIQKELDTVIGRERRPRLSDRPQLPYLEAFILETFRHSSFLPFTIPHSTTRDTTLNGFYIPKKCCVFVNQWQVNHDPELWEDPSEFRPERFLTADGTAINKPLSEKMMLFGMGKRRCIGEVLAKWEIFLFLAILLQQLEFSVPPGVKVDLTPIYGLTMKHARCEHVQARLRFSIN
# Method: The reactions were carried out in duplicate at each time point. Incubation conditions used for the determination of K M and V max were optimized for linearity with respect to time and protein concentrations. […] Metabolites were analyzed by LC‐MS/MS as described below. The K M and V max values of each marker substrate were determined using nonlinear least squares regression analysis in GraFit software (version 3.0, Erithacus Software Limited) and SigmaPlot Enzyme Kinetics Module for Windows 7.0 (SPSS, Inc).
# (§1) The well‐stirred model was used to estimate the hepatic clearance (CLH) due to metabolism.
# [4] = Simcyp prediction of total hepatic clearance; set-up: species or system human
# Method: The clearance of the incubation mixture was expressed as μL/min/pmol for rCYP.
# as §1
# CYP1A2 [5] = biological target: T2, CYP1A2; assay: in vitro; settings: recombinant CYP1A2, pH 7.4
# [6] = PZQ-ketoconazole DDI pharmacokinetic study in healthy volunteers; format: in vivo, human; settings: for AUC(0-inf) / AUC / CL/F / k el / half-life / Tmax / Vd/F: male, human, plasma
# Method: Plasma samples were obtained from the AiBST biobank. […] Each participant served as their own control. Each participant provided written informed consent to take part in the study and the study was carried out according to Helsinki Declaration of 1975, as revised in 2008. The study was approved by the Medical Research Council of Zimbabwe (MRCZ) and the Medicines Controls Authority of Zimbabwe (MCAZ). […] The samples were vortexed for 30 seconds and left under gentle agitation for 25 minutes. […] From the supernatant, 20 μL was injected onto the chiral HPLC system for analysis. […] Detection was done using a UV diode array detector at 210 nm. […] The data were gathered and processed using Agilent OpenLab CDS for Chemstation software version 1.9. Linear calibration curves were plotted as concentration vs peak area ratio for analyte to IS with no weighting. […] The pharmacokinetic (PK) analysis was performed using the WinNonlin program, version 8.2 (Pharsight Corp). […] A non-compartmental approach was used for curve plotting and parameter calculation. The area under the curve (AUC) from time 0 to the last sampling time point (AUCt) was computed using the log-linear trapezoidal rule. The linear trapezoidal rule was used for the ascending part of the PK curve, while the log trapezoidal rule was used for the descending part of the graph. The AUC extrapolated to infinite time was calculated as AUC∞ = AUCt + Ct/K el where Ct is the concentration of the last sample taken and K el is the terminal elimination rate constant. The terminal elimination rate constant K el was determined by least squares regression analysis in the terminal phase of the semi log concentration-time curve. […] Statistical analysis was performed using the GraFit software (version 3.0, Erithacus Software Limited). […] Analysis of variance (ANOVA) was performed on the AUC and C max after transformation of the data to their natural logarithmic (ln) values.
# CYP2D6 = CYP2D6 (Homo sapiens, UniProt P10635); assay: in vitro; settings: recombinant CYP2D6, pH 7.4
# CYP2D6, sequence (P10635 whole entry): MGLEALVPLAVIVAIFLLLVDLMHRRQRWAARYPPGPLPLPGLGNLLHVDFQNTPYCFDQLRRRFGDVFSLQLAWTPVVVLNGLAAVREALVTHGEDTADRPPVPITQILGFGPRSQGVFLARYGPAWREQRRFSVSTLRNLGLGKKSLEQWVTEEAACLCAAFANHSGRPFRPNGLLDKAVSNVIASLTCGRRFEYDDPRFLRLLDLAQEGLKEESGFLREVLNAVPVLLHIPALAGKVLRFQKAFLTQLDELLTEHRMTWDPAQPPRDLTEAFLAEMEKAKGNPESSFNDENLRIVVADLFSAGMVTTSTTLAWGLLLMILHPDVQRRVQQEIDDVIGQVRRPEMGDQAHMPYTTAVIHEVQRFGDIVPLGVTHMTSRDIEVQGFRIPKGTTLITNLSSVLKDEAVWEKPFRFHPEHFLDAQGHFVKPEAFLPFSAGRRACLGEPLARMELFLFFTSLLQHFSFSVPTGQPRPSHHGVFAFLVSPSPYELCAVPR
# [7] = PZQ + ketoconazole vs PZQ alone
# [8] = single oral 20 mg/kg PZQ alone, n = 9, listed as R‐Praziquantel, 20 mg/kg
# T1 sequence (P33261 whole entry): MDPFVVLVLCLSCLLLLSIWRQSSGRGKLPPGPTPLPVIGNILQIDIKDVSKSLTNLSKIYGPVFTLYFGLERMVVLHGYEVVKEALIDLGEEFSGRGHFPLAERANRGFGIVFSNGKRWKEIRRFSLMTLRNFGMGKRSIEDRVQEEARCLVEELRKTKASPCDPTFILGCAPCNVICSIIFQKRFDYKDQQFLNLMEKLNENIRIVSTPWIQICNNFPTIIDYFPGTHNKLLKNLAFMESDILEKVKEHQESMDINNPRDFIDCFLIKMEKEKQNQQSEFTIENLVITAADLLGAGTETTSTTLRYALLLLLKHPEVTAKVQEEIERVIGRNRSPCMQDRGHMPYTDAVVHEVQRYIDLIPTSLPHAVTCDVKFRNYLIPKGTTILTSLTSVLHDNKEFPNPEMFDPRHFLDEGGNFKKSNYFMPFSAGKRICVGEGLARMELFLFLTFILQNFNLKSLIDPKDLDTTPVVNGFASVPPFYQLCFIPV
smiles,measurement,setting,value
"O=C(C1CCCCC1)N1CC(=O)N2CCc3ccccc3[C@@H]2C1 [R‐PZQ, R‐Praziquantel]",half-life at 1 µmol/L,CYP2C19 [1],3.6 min
same,Predicted CLH,CYP2C19 [2],3.904 mL/min/kg
same,"Predicted CLuH,int",CYP2C19 [2],19.73 mL/min/kg
same,"CLuH,int",CYP1A2 [3],7.55 mL/min/kg and 7.550 mL/min/kg
same,Predicted total CLH (Simcyp),[4]; metabolite formation assay,9.777 mL/min/kg
same,Predicted total CLH (Simcyp),[4]; substrate depletion assay,6.923 mL/min/kg
same,half-life at 1 µmol/L,CYP1A2 [5],7.54 min
same,"Clearance/F, treatment mean (SD)","[6]; 20 mg/kg PZQ plus 200 mg ketoconazole, n = 9",1146 (992.1) L/h
same,Decrease of mean C max with KTZ,[6]; PZQ + KTZ vs PZQ alone,11.85%
same,"AUCinf, difference observed %",[6]; [7],9% and 9.26%
same,"AUCt0‐tlast, difference observed %",[6]; [7],−14.68%
same,"C max, difference observed %",[6]; [7],−11.85%
same,"Clearance/F, difference observed %",[6]; [7],26.99%
same,"Elimination rate constant, difference observed %",[6]; [7],−4.350%
same,"Half life, difference observed %",[6]; [7],79.64%
same,"T max, difference observed %",[6]; [7],−46.33%
same,"V d/F, difference observed %",[6]; [7],74.87%
same,"AUCinf, difference observed %","[6]; PZQ + ketoconazole vs PZQ alone, listed as R‐Praziquantel",9.290%
same,AUC(0-inf),"[6]; oral, 20 mg/kg, 20 mg/kg PZQ plus 200 mg ketoconazole, n = 9, read-out: AUCinf, treatment geo mean",1290 ng·h/mL
same,AUC(0-inf),"[6]; oral, 20 mg/kg, 20 mg/kg PZQ plus 200 mg ketoconazole, n = 9, read-out: AUCinf, treatment mean (SD)",1470 ng·h/mL
same,AUC,"[6]; oral, 20 mg/kg, 20 mg/kg PZQ plus 200 mg ketoconazole, n = 9, read-out: AUCt0‐tlast, treatment geo mean",945 ng·h/mL
same,CL/F,"[6]; oral, 20 mg/kg, 20 mg/kg PZQ plus 200 mg ketoconazole, n = 9, read-out: Clearance/F, treatment geo mean (converted)",15300 mL/min
same,CL/F,"[6]; oral, 20 mg/kg, 20 mg/kg PZQ plus 200 mg ketoconazole, n = 9, read-out: Clearance/F, treatment mean (SD) (converted)",19100 mL/min
same,k el,"[6]; oral, 20 mg/kg, 20 mg/kg PZQ plus 200 mg ketoconazole, n = 9, read-out: Elimination rate constant, treatment geo mean (converted)",4.44e-05 s⁻¹
same,k el,"[6]; oral, 20 mg/kg, 20 mg/kg PZQ plus 200 mg ketoconazole, n = 9, read-out: Elimination rate constant, treatment mean (SD) (converted)",6.11e-05 s⁻¹
same,half-life,"[6]; oral, 20 mg/kg, 20 mg/kg PZQ plus 200 mg ketoconazole, n = 9, read-out: Half life, treatment geo mean (converted)",4.14 h
same,half-life,"[6]; oral, 20 mg/kg, 20 mg/kg PZQ plus 200 mg ketoconazole, n = 9, read-out: Half life, treatment mean (SD) (converted)",6 h
same,Tmax,"[6]; oral, 20 mg/kg, 20 mg/kg PZQ plus 200 mg ketoconazole, n = 9, read-out: T max, treatment geo mean",1.53 h
same,Tmax,"[6]; oral, 20 mg/kg, 20 mg/kg PZQ plus 200 mg ketoconazole, n = 9, read-out: T max, treatment mean (SD)",1.61 h
same,Vd/F,"[6]; oral, 20 mg/kg, 20 mg/kg PZQ plus 200 mg ketoconazole, n = 9, read-out: V d/F, treatment geo mean",5480 L
same,Vd/F,"[6]; oral, 20 mg/kg, 20 mg/kg PZQ plus 200 mg ketoconazole, n = 9, read-out: V d/F, treatment mean (SD)",7880 L
same,AUC,"[6]; oral, 20 mg/kg, AUC, PZQ alone",1350 ± 1470 ng·h/mL
same,AUC,"[6]; oral, 20 mg/kg, read-out: AUC from the in vivo pharmacokinetic study",2400 ng·h/mL
same,AUC,"[6]; oral, AUC, PZQ + KTZ",1470 ± 767 ng·h/mL
same,AUC(0-inf),"[6]; po, 20 mg/kg, single oral 20 mg/kg PZQ alone, n = 9, read-out: AUCinf, reference geo mean",1300 ng·h/mL
same,AUC(0-inf),"[6]; po, 20 mg/kg, single oral 20 mg/kg PZQ alone, n = 9, read-out: AUCinf, reference mean (SD)",1340 ng·h/mL
same,AUC,"[6]; po, 20 mg/kg, single oral 20 mg/kg PZQ alone, n = 9, read-out: AUCt0‐tlast, reference geo mean",1120 ng·h/mL
same,AUC,"[6]; po, 20 mg/kg, single oral 20 mg/kg PZQ alone, n = 9, read-out: AUCt0‐tlast, reference mean (SD)",1240 ng·h/mL
same,CL/F,"[6]; po, 20 mg/kg, single oral 20 mg/kg PZQ alone, n = 9, read-out: Clearance/F, reference geo mean (converted)",14600 mL/min
same,CL/F,"[6]; po, 20 mg/kg, single oral 20 mg/kg PZQ alone, n = 9, read-out: Clearance/F, reference mean (SD) (converted)",15000 mL/min
same,k el,"[6]; po, 20 mg/kg, single oral 20 mg/kg PZQ alone, n = 9, read-out: Elimination rate constant, reference geo mean (converted)",6.11e-05 s⁻¹
same,k el,"[6]; po, 20 mg/kg, single oral 20 mg/kg PZQ alone, n = 9, read-out: Elimination rate constant, reference mean (SD) (converted)",6.39e-05 s⁻¹
same,half-life,"[6]; po, 20 mg/kg, single oral 20 mg/kg PZQ alone, n = 9, read-out: Half life, reference geo mean (converted)",3.21 h
same,half-life,"[6]; po, 20 mg/kg, single oral 20 mg/kg PZQ alone, n = 9, read-out: Half life, reference mean (SD) (converted)",3.34 h
same,Tmax,"[6]; po, 20 mg/kg, single oral 20 mg/kg PZQ alone, n = 9, read-out: T max, reference geo mean",2.59 h
same,Tmax,"[6]; po, 20 mg/kg, single oral 20 mg/kg PZQ alone, n = 9, read-out: T max, reference mean (SD)",3 h
same,Vd/F,"[6]; po, 20 mg/kg, single oral 20 mg/kg PZQ alone, n = 9, read-out: V d/F, reference geo mean",4050 L
same,Vd/F,"[6]; po, 20 mg/kg, single oral 20 mg/kg PZQ alone, n = 9, read-out: V d/F, reference mean (SD)",4510 L
same,"Clearance/F, reference mean (SD)","[6]; single oral 20 mg/kg PZQ alone, n = 9, 20 mg/kg",902.09 ± 264 L/h
same,"C max, reference mean (SD)",[6]; [8],313.1 (131.1) ng/mL
same,"Clearance/F, reference mean (SD)",[6]; [8],902.1 (264.9) L/h
same,half-life at 1 µmol/L,CYP2D6,0.578 h
